Results from ChEMBL document CHEMBL1201862, “PubChem BioAssay data set” (2004).
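Cultured in 96-well plates, cells were exposed to test compound for 48 hours across five concentrations. GI50 marks 50% less growth.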 The source made the active and inactive calls. Cut-off read from the data, not from the text of the source: active = GI50 up to about 1.1 µM and inactive = higher.

Key:
Experiment in all cases: DTP human tumour cell line panel, 48 h
UACC-257 = system: UACC-257
SK-MEL-2 = system: SK-MEL-2
OVCAR-4 = system: OVCAR-4
COLO 205 = system: COLO 205
CCRF-CEM = system: CCRF-CEM
K562 = system: K562
OVCAR-5 = system: OVCAR-5
SN12C = system: SN12C
RPMI-8226 = system: RPMI-8226
KM12 = system: KM12
SW-620 = system: SW-620
HCT-116 = system: HCT-116
SF-539 = system: SF-539
SR = system: SR
HOP-92 = system: HOP-92
OVCAR-3 = system: OVCAR-3
MCF7 = system: MCF7
DU-145 = system: DU-145
NCI-H226 = system: NCI-H226

Measured: GI50

CCN(CC)CC(=O)Nc1ccc2c(c1)C(=O)c1ccc(NC(=O)CN(CC)CC)cc1C2=O
inactive: UACC-257 31.8 µM | SK-MEL-2 > 100 µM | OVCAR-4 39.1 µM | COLO 205 15.2 µM | CCRF-CEM 20.7 µM | K562 24.7 µM | OVCAR-5 > 100 µM | SN12C 20.1 µM | RPMI-8226 31.3 µM | KM12 22.3 µM | SW-620 24.9 µM | HCT-116 13.6 µM | SF-539 16.3 µM | SR 18.1 µM | HOP-92 85.3 µM

CN1CCN(C(=S)N(C)C(=O)c2cccs2)CC1
inactive: OVCAR-3 > 100 µM | UACC-257 > 100 µM | SK-MEL-2 > 100 µM | OVCAR-4 > 100 µM | COLO 205 > 100 µM | CCRF-CEM > 100 µM | MCF7 > 100 µM | K562 > 100 µM | OVCAR-5 > 100 µM | SN12C > 100 µM | RPMI-8226 > 100 µM | KM12 > 100 µM | SW-620 > 100 µM | DU-145 > 100 µM | SR > 100 µM | NCI-H226 > 100 µM | HOP-92 > 100 µM

O=C1C2c3[nH]c4ccccc4c3C3CCC(c4ccccc4)CC3C2C(=O)N1c1ccccc1 (configuration not stated)
inactive: OVCAR-3 > 100 µM | OVCAR-4 58.5 µM | COLO 205 > 100 µM | CCRF-CEM 44.3 µM | K562 55.1 µM | OVCAR-5 > 100 µM | SN12C > 100 µM | RPMI-8226 > 100 µM | KM12 > 100 µM | SW-620 > 100 µM | SF-539 97.7 µM | SR 92.5 µM | NCI-H226 > 100 µM

COc1cc(CNc2nc3c(N)cc(C(F)(F)F)cc3nc2-c2ccccc2)cc(OC)c1OC
inactive: OVCAR-3 36.1 µM | UACC-257 63 µM | SK-MEL-2 52.1 µM | OVCAR-4 8.95 µM | COLO 205 38.5 µM | CCRF-CEM > 10 µM | K562 12.1 µM | OVCAR-5 37.4 µM | SN12C 70.3 µM | RPMI-8226 47.3 µM | KM12 18 µM | SW-620 85.1 µM | HCT-116 19.7 µM | SF-539 > 10 µM | SR > 10 µM | NCI-H226 50.2 µM | HOP-92 22.8 µM
